# Laboratory results taken from PubChem BioAssay AID504893 (The Scripps Research Institute Molecular Screening Center, 2011).
# Molecular target: cAMP-dependent protein kinase type II-beta regulatory subunit (Homo sapiens) (UniProt P31323)
# Assay: PKAc release from R2B regulatory subunit – biochemical, fluorescence polarization, EC50, human R2B, selectivity assay for PKA-R1A activator project, dose response (AID 504893)
# Conditions: PKA-R2B holoenzyme, Cy5-IP20 fluorescence polarization activation
# Sequence of cAMP-dependent protein kinase type II-beta regulatory subunit (Homo sapiens) (P31323 whole entry, looked up): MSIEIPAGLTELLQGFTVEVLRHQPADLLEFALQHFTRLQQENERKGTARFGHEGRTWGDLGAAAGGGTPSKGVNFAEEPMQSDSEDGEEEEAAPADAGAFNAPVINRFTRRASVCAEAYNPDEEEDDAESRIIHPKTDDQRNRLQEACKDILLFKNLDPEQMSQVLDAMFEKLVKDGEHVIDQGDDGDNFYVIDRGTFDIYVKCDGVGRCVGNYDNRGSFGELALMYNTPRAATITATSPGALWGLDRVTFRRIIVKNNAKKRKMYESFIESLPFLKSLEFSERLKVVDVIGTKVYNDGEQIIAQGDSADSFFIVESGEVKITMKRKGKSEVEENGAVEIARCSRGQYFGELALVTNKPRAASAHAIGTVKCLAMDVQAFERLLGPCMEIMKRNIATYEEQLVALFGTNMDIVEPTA
row,SMILES,EC50
1,CCOP1(=O)OCC2OC(n3cnc4c(N)ncnc43)C(O)C2O1 (stereo not given),3750 nM
2,Nc1ncnc2c1nc(Br)n2[C@@H]1O[C@@H]2COP(=O)(O)O[C@H]2[C@H]1O,51.1 nM
3,Nc1nc2c(nc(Br)n2[C@@H]2O[C@@H]3COP(=O)(O)O[C@H]3[C@H]2O)c(=O)[nH]1,2160 nM
4,Nc1ncnc2c1nc(Sc1ccc(Cl)cc1)n2[C@@H]1O[C@@H]2COP(=O)(O)O[C@H]2[C@H]1O,50.5 nM
5,CCCC(=O)Nc1ncnc2c1ncn2[C@@H]1O[C@@H]2OP(=O)(O)OC[C@H]2[C@H]1OC(=O)CCC,9100 nM
